Patent publication US20050032873A1, “3-Amino chroman and 2-amino tetralin derivatives” (Wyeth, priority 2003, published 2005)
pEC50, pIC50, pKi: −log10 of the molar value. Counter-ions that a name gives are not always drawn. Like-named read-outs stand apart in the source and are kept apart here. Each block holds one molecule with its values, some of them ahead of it.

Legend:
5-HT1A receptor [1] = target: T1, 5-HT1A receptor (Homo sapiens, UniProt P08908); test: 5-HT1A receptor affinity: displacement of [3H] 8-OH-DPAT; format: binding; set-up: expressed in transfected cells; conditions: for pKi: displacement of [3H] 8-OH-DPAT, CHO cells stably transfected with human 5-HT1A receptors, read-out: 5-HT1A Receptor Affinity Ki; for inhibition at 1 µM: read-out: 5-HT1A Receptor Affinity, % @ 1 μM
T1 sequence (P08908 1-422): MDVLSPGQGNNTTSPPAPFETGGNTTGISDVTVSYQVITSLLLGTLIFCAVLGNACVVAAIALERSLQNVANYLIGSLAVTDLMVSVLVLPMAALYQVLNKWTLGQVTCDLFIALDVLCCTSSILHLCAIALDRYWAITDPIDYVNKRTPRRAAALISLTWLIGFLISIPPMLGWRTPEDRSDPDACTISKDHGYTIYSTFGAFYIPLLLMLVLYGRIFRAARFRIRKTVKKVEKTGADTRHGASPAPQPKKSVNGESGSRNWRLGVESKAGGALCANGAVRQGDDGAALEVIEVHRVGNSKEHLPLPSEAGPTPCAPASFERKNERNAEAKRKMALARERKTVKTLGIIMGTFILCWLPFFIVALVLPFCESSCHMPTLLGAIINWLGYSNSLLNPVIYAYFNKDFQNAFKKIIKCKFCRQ

serotonin transporter = target: T2, serotonin transporter (Rattus norvegicus, UniProt P31652); test: 5-HT transporter affinity: displacement of 3H-paroxetine from male rat cortical membranes; format: binding; conditions: displacement of 3H-paroxetine; male rat cortical membranes; read-out: 5-HT Transporter Affinity Ki
T2 construct: displace ^3H-paroxetine from male rat cortical membranes; from tissue; host or cells: male rat cortical membranes

[2] = target: T3, cloned human 5-HT1A receptors (Homo sapiens, UniProt P08908); test: 35S-GTPγS binding assay, 5-HT1A function; format: biochemical; conditions: for pEC50: agonist potency; for pIC50: antagonist potency, reversal of 8-OH-DPAT, read-out: 5-HT1A Function GTPγS IC50
T3 construct: expressed in transfected cells
T3 sequence (P08908 1-422): T1 sequence (P08908 1-422)

5-HT1A receptor [3] = target: T1, 5-HT1A receptor; test: cAMP accumulation assay, 5-HT1A function; format: cell-based; conditions: for pEC50: cells marked EC50 (agonist); for Emax: in brackets after EC50 or IC50, read-out: 5-HT1A Function cAMP (Emax); for pIC50: cells marked IC50 (antagonist), read-out: 5-HT1A Function cAMP IC50
Excerpt: The agonist or antagonist activity at 5-HT1A receptors was established by using two different assays. […] Agonists produce an increase in binding whereas antagonists produce no increase but rather reverse the effects of the standard agonist 8-OH-DPAT. The test compound's maximum stimulatory effect is represented as the Emax, while its potency is defined by the EC50. The test compound's maximum inhibitory effect is represented as the Imax, while its potency is defined by the IC50. The second assay measured cAMP accumulation upon binding of the ligand to the 5-HT1A receptor. […] The test compound's maximum stimulatory or inhibitory effect is represented as the Emax while its potency is defined by either IC50 for an antagonist or EC50 for an agonist. [^3H]-8-OH-DPAT was used to determine maximum agonist or antagonist response in both functional assays.

[4] = maximum stimulatory effect, in brackets after EC50, read-out: 5-HT1A Function GTPγS (Emax)
[5] = maximum inhibitory effect, in brackets after IC50, read-out: 5-HT1A Function GTPγS (Imax)

T2 sequence (P31652 whole entry): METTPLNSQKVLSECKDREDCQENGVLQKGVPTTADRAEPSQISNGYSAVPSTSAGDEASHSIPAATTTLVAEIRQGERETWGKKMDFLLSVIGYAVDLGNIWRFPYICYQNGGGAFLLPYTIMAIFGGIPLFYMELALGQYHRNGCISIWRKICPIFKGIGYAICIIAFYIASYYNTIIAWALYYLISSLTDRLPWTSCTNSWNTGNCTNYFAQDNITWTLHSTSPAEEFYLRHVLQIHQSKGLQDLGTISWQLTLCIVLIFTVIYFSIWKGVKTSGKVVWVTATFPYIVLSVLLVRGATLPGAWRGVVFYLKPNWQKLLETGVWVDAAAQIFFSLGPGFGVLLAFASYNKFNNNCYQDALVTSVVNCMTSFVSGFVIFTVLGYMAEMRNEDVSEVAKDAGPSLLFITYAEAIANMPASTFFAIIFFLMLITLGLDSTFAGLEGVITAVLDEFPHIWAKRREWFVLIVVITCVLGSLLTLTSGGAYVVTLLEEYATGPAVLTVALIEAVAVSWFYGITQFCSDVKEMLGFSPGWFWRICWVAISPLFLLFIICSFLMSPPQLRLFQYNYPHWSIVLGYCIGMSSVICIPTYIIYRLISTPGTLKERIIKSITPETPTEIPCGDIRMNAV

melting point: 148 to 150 °C
SMILES: CCCN(C(C)CCCc1c[nH]c2ccc(F)cc12)C1COc2c(F)ccc(C(N)=O)c2C1 (single isomer, unassigned; (+)) (as salt: hydrochloride) [Compound 14a, (+)-8-fluoro-3-[[4-(5-fluoro-1H-indol-3-yl)-1-methylbutyl](propyl)amino]chromane-5-carboxamide]

melting point: 135 °C (dec.)
SMILES: CCN(C(C)CCc1c[nH]c2ccc(F)cc12)C1COc2c(F)ccc(C(N)=O)c2C1 (single isomer, unassigned; (+)) (as salt: hydrochloride) [Compound 16b, (+)-3-{ethyl[3-(5-fluoro-1H-indol-3-yl)-1-methylpropyl]amino}-8-fluorochromane-5-carboxamide]

melting point: 147 to 150 °C
SMILES: CCCN(C(C)CCCc1c[nH]c2ccc(F)cc12)C1COc2c(F)ccc(C(N)=O)c2C1 (single isomer, unassigned; (-)) (as salt: hydrochloride) [Compound 14b, (−)-8-fluoro-3-[[4-(5-fluoro-1H-indol-3-yl)-1-methylbutyl](propyl)amino]chromane-5-carboxamide]

melting point: 132 °C (dec.)
SMILES: CCN(C(C)CCc1c[nH]c2ccc(F)cc12)C1COc2c(F)ccc(C(N)=O)c2C1 (single isomer, unassigned; (-)) (as salt: hydrochloride) [Compound 16a, (−)-3-{ethyl[3-(5-fluoro-1H-indol-3-yl)-1-methylpropyl]amino}-8-fluorochromane-5-carboxamide]

pKi (5-HT1A receptor [1]): 7.19 | pKi (serotonin transporter): 7.63 | pEC50 [2]: 5.52 | Emax [2, 4]: 100% | pEC50 (5-HT1A receptor [3]): 6.89 | Emax (5-HT1A receptor [3]): 84% | melting point: 153 to 155 °C
SMILES: NC(=O)c1cccc2c1CC(NCCCc1c[nH]c3ccc(F)cc13)CO2 (stereo not shown) [Compound 133, 3-{[3-(5-fluoro-1H-indol-3-yl)propyl]amino}chromane-5-carboxamide]

inhibition at 1 µM (5-HT1A receptor [1]): 0% | pKi (serotonin transporter): 6.38 | melting point: 130 to 131 °C
SMILES: O=C(O)c1cccc2c1CC(N(CCCc1c[nH]c3c(F)cc(F)cc13)C1CCC1)CO2 (stereo not shown) [Compound 137, 3-{cyclobutyl[3-(5,7-difluoro-1H-indol-3-yl)propyl]amino}chromane-5-carboxylic acid]

pKi (5-HT1A receptor [1]): 7.36 | pKi (serotonin transporter): 6.63 | pIC50 [2]: 5.52 | Emax [2, 5]: 100% | pIC50 (5-HT1A receptor [3]): 6.22 | Emax (5-HT1A receptor [3]): 0% | melting point: 163 to 166 °C
SMILES: COc1cccc2c(CCCNC3COc4c(F)ccc(C(N)=O)c4C3)coc12 (stereo not shown) [Compound 161, 8-fluoro-3-{[3-(7-methoxy-1-benzofuran-3-yl)propyl]amino}chromane-5-carboxamide]

pKi (5-HT1A receptor [1]): 7.51 | pKi (serotonin transporter): 7.35 | pIC50 [2]: 5.74 | Emax [2, 5]: 100% | pIC50 (5-HT1A receptor [3]): 6.86 | Emax (5-HT1A receptor [3]): 0% | melting point: 138 to 141 °C
SMILES: COc1cccc2c(CCCCNC3COc4c(F)ccc(C(N)=O)c4C3)coc12 (stereo not shown) [Compound 167, 8-fluoro-3-{[4-(7-methoxy-1-benzofuran-3-yl)butyl]amino}chromane-5-carboxamide]

The remaining lines, values behind:

SMILES: NC(=O)c1ccc(F)c2c1CC(N(CCCc1c[nH]c3ccc(F)cc13)C1CCC1)CO2 (single isomer, unassigned; (+)) (as salt: hydrochloride) [Compound 4a, (+)-3-{cyclobutyl[3-(5-fluoro-1H-indol-3-yl)propyl]amino}-8-fluorochromane-5-carboxamide]
melting point: 129 °C (dec.)

SMILES: CCCN(CCCc1c[nH]c2ccc(F)cc12)C1CCc2c(F)ccc(OC)c2C1 (single isomer, unassigned; (+)) (as salt: hydrochloride) [Compound 51a, (+)-5-fluoro-N-[3-(5-fluoro-1H-indol-3-yl)propyl]-8-methoxy-N-propyl-1,2,3,4-tetrahydro-2-naphthalenamine]
melting point: 117 °C (dec.)

SMILES: NC(=O)c1ccc(F)c2c1CC(NCCCc1c[nH]c3ccc(F)cc13)CO2 (single isomer, unassigned; (-)) (as salt: hydrochloride) [Compound 1b, (−)-8-fluoro-3-{[3-(5-fluoro-1H-indol-3-yl)propyl]amino}chromane-5-carboxamide]
melting point: 87 °C (dec.)

SMILES: CCCN(CCCc1c[nH]c2ccc(F)cc12)C1COc2c(F)ccc(C(N)=O)c2C1 (single isomer, unassigned; (-)) (as salt: hydrochloride) [Compound 2a, (−)-8-fluoro-3-[[3-(5-fluoro-1H-indol-3-yl)propyl](propyl)amino]-3,4-dihydro-2H-chromene-5-carboxamide]
melting point: 126 °C (dec.)

SMILES: NC(=O)c1ccc(F)c2c1CC(N(CCCc1c[nH]c3ccc(F)cc13)CC1CC1)CO2 (single isomer, unassigned; (-)) (as salt: hydrochloride) [Compound 5a, (−)-3-{(cyclopropylmethyl)[3-(5-fluoro-1H-indol-3-yl)propyl]amino}-8-fluorochromane-5-carboxamide]
melting point: 123 °C (dec.)

SMILES: CC(CCc1c[nH]c2ccc(F)cc12)N(CC1CC1)C1COc2c(F)ccc(C(N)=O)c2C1 (single isomer, unassigned; (-)) (as salt: hydrochloride) [Compound 15a, (−)-3-{(cyclopropylmethyl)[3-(5-fluoro-1H-indol-3-yl)-1-methylpropyl]amino}-8-fluorochromane-5-carboxamide]
melting point: 135 °C (dec.)

SMILES: NC(=O)c1cccc2c1CC(N(CCCc1c[nH]c3ccc(F)cc13)C1CCC1)CO2 (stereo not shown) [Compound 134, 3-{cyclobutyl[3-(5-fluoro-1H-indol-3-yl)propyl]amino}chromane-5-carboxamide]
pKi (5-HT1A receptor [1]): 8.76 | pKi (serotonin transporter): 8.06 | pEC50 [2]: 7.66 | pIC50 [2]: 6.73 | Emax [2, 5]: 69% | Emax [2, 4]: 28% | pEC50 (5-HT1A receptor [3]): 7.72 | Emax (5-HT1A receptor [3]): 81% | melting point: 102 to 105 °C

SMILES: COc1cccc2c(CCNC3COc4c(F)ccc(C(N)=O)c4C3)coc12 (stereo not shown) [Compound 156, 8-fluoro-3-{[2-(7-methoxy-1-benzofuran-3-yl)ethyl]amino}chromane-5-carboxamide]
inhibition at 1 µM (5-HT1A receptor [1]): 28% | pKi (serotonin transporter): 6.42 | melting point: 172 to 174 °C
